Data set [1] concerns proteoglycan (PG) release under IL-1α. Description: Proteoglycan (PG) release from prelabelled cultured cartilage matrix with addition of IL-1α. In kind it is cell-based. Particulars: for inhibition of PG release under IL-1α: 20 units of IL-1α, 10 μM; for inhibiting activity on PG release (further compounds): concentration not given. On the procedure:
Further, to a cultured cartilage matrix, in which PG is prelabelled in advance with 1 μCi of Na2^35 SO4, 20 units of IL-1α was added to each group including control group and 10 μM of PAL, 100 μM of PAL or 10 μM of ACP was added to each test group and studied the effect of each compound to the PG release from the cells.

The nature of data set [2]: Acute toxicity (LD50) of further compounds, determined in the same manner as ACP. The data set is classed as in vivo. As to conditions: same manner as ACP (oral or subcutaneous, mice and rats). Here is the method: For oral administration, a suspension of ACP dispersed in an aqueous solution of 0.5% methylcellulose and 0.4% Tween 80 (nonionic surfactant, manufactured by TOKYO KASEI, Co., Ltd.) was prepared and administered to the animals via a stomach sonde. For subcutaneous administration, a suspension of ACP dispersed in an aqueous physiological saline solution containing 0.5% of carboxymethyl cellulose sodium (hereinafter referred to as "CMC") was prepared and injected to the animals with a syringe.
Further, the acute toxicities (LD50) of […]

Data set [3] has as its system IL-1 release from human monocyte. Description: Inhibition of IL-1 (IL-1α and IL-1β) release from human monocyte. The data set is classed as cell-based. Particulars: 3.3 μM; LPS 10 μg/ml, 42 hours. On the procedure:
Monocyte were isolated from human venous blood by density-gradient centrifugation using a Ficoll-paque solution and obtained the cells having a purity of not less than 95% by purifying with a monocyte-separating plate. After dispersing the cells in a medium, RPMI 1640, containing 10% of FBS, the monocyte were inoculated in a culture dish in a ratio of 10^6 cells/3 ml/well and cultured under an atmosphere containing 5% CO2 at 37° C. for 30 minutes. Then, each 15 μl of DMSO solution of one of ACP, PAL and PAC was added to each well (a final DMSO concentration of 0.5%) and 30 minutes later a lipopolysaccharide (hereinafter referred to as "LPS"), a substance to stimulate IL-1 production, was added at a final LPS concentration of 10 μg/ml and they were cultured for 42 hours. Then, the reacted culture medium was recovered and accompanied cells with the medium were separated by centrifugation and obtained the supernatant free of cell. IL-1α and IL-1β released from the cells were measured by ELISA method in the same manner as in item (i) above.

Data set [4] is described as follows: Acute toxicity (LD50) of PAC in male mice. As to conditions: intraperitoneal, level relative to PAC (not less than 400 mg/kg). The data set is classed as in vivo.

Where a name gives a salt, the structure may show the parent alone.

On to `O=C(Oc1ccc(C(OC(=O)c2ccccc2)OC(=O)c2ccccc2)cc1OC(=O)c1ccccc1)c1ccccc1` [3,4-dibenzoyloxybenzylidene dibenzoate], for which, in data set [1], the “inhibition of PG release under IL-1α” value is “inhibited the release amount of PG”. Also, the “acute toxicities (LD50), compared with ACP” value in data set [2] was “approximately same values”. Also, in data set [3], the “inhibition of IL-1 release” value is given as “significantly inhibit”.
Regarding `CC(=O)Oc1ccc(C(=O)[O-])cc1OC(C)=O.[Na+]` [3,4-diacetoxybenzoic acid sodium salt], the “inhibiting activity on PG release (further compounds)” value (“inhibiting activity on PG release” for short) in data set [1] is on record as “same effects”. The “acute toxicities (LD50), compared with ACP” value in data set [2] was “approximately same values”.
For `O=C(O)c1ccc(O)c(O)c1` [sodium salt of PAC], the “LD50 value, compared with PAC” value in data set [4] is “same level of LD50 value”.
For `CCCCCCCCCCCCCCCCCC(=O)Oc1ccc(C(OC(=O)CCCCCCCCCCCCCCCCC)OC(=O)CCCCCCCCCCCCCCCCC)cc1OC(=O)CCCCCCCCCCCCCCCCC` [3,4-di-n-octadecanoyloxybenzylidene di-n-octadecanoate], the “inhibition of PG release under IL-1α” value in data set [1] is listed as “inhibited the release amount of PG”. For the same molecule, in data set [2], the “acute toxicities (LD50), compared with ACP” value was “approximately same values”. In data set [3], the “inhibition of IL-1 release” value is recorded as “significantly inhibit”.
For the molecule `CCCC(=O)Oc1ccc(C(OC(=O)CCC)OC(=O)CCC)cc1OC(=O)CCC` [3,4-di-n-butyryloxybenzylidene di-n-butyrate], the “inhibiting activity on PG release” value in data set [1] was “same effects”. In addition, the “acute toxicities (LD50), compared with ACP” value in data set [2] is listed as “approximately same values”.
The matching figures for `CCCCCCCCCCCCCC(=O)Oc1ccc(C(OC(=O)CCCCCCCCCCCCC)OC(=O)CCCCCCCCCCCCC)cc1OC(=O)CCCCCCCCCCCCC` [3,4-di-n-tetradecanoyloxybenzylidene di-n-tetradecanoate]: “same effects” and “approximately same values”.
On to `O=Cc1ccc(OC(=O)c2ccccc2)c(OC(=O)c2ccccc2)c1` [3,4-dibenzoyloxybenzaldehyde], for which the “inhibiting activity on PG release” value in data set [1] is recorded as “same effects”. In data set [2], the “acute toxicities (LD50), compared with ACP” value is “approximately same values”.
Regarding `CCC(=O)Oc1ccc(C(OC(=O)CC)OC(=O)CC)cc1OC(=O)CC` [3,4-di-n-propionyloxybenzylidene di-n-propionate], the “inhibition of PG release under IL-1α” value in data set [1] is reported as “inhibited the release amount of PG”. Also, the “acute toxicities (LD50), compared with ACP” value in data set [2] is “approximately same values”. In data set [3], the “inhibition of IL-1 release” value is given as “significantly inhibit”.
Turning to `CCCCCCCCCCCCCCCCCC(=O)OC(OC(=O)CCCCCCCCCCCCCCCCC)c1ccc(OC(C)=O)c(OC(C)=O)c1` [3,4-diacetoxybenzylidene di-n-octadecanoate], the “inhibiting activity on PG release” value in data set [1] is recorded as “same effects”. For the same molecule, the “acute toxicities (LD50), compared with ACP” value in data set [2] is listed as “approximately same values”.
Regarding `CC(=O)Oc1ccc(C=O)cc1OC(C)=O` [3,4-diacetoxybenzaldehyde], the “inhibiting activity on PG release” value in data set [1] is listed as “same effects”. Also, the “acute toxicities (LD50), compared with ACP” value in data set [2] is “approximately same values”.
The matching figures for `CC(=O)Oc1ccc(C(=O)O)cc1OC(C)=O` [3,4-diacetoxybenzoic acid]: “same effects” and “approximately same values”.
Consider `CCCCCCCCCCCCCCCCCC(=O)Oc1ccc(C(OC(C)=O)OC(C)=O)cc1OC(=O)CCCCCCCCCCCCCCCCC` [3,4-di-n-octadecanoyloxybenzylidene diacetate], for which the “inhibiting activity on PG release” value in data set [1] is given as “same effects”. Also, the “acute toxicities (LD50), compared with ACP” value in data set [2] is reported as “approximately same values”.
With `CCCCCCCCCCCC(=O)Oc1ccc(C(OC(=O)CCCCCCCCCCC)OC(=O)CCCCCCCCCCC)cc1OC(=O)CCCCCCCCCCC` [3,4-di-n-dodecanoyloxybenzylidene di-n-dodecanoate], the “inhibition of PG release under IL-1α” value in data set [1] was “inhibited the release amount of PG”. Further, in data set [2], the “acute toxicities (LD50), compared with ACP” value was “approximately same values”. For the same molecule, the “inhibition of IL-1 release” value in data set [3] is on record as “significantly inhibit”.
As to `CCCCCCCCCCCCCCCCCC(=O)Oc1ccc(C=O)cc1OC(=O)CCCCCCCCCCCCCCCCC` [3,4-di-n-octadecanoyloxybenzaldehyde], the “inhibiting activity on PG release” value in data set [1] is recorded as “same effects”. Moreover, the “acute toxicities (LD50), compared with ACP” value in data set [2] is “approximately same values”.
With `CCCCCCCCCCCCCCCC(=O)Oc1ccc(C(OC(=O)CCCCCCCCCCCCCCC)OC(=O)CCCCCCCCCCCCCCC)cc1OC(=O)CCCCCCCCCCCCCCC` [3,4-di-n-hexadecanoyloxybenzylidene di-n-hexadecanoate], the “inhibiting activity on PG release” value in data set [1] is recorded as “same effects”. In addition, the “acute toxicities (LD50), compared with ACP” value in data set [2] is given as “approximately same values”.

Source of the values: patent US4997850A, “Treating agent for osteroarthritis” (Kureha Kagaku Kogyo Kabushiki Kaisha, priority 1989, dated 1991).
